Measured values from patent US20150246074A1, “METHODS OF A[…] TOLERANCE” (The Board of Trustees of the University of Illinois, priority 2014, published 2015).

Columns and labels:
[1] = tested on: Sprague-Dawley rats; assay: Withdrawal thresholds to thermal stimulation (plantar test) in rats, MSC transplantation and daily morphine; type: in vivo, rat; conditions: control group, Day 17 and thereafter, daily morphine, p<0.05
Protocol: (§1) Animal care and use. The experimental protocols were approved by the Institutional Animal Care and Use Committee of Cleveland Clinic (IACUC #: 2010-0460). Experiments were performed on 24 male Sprague-Dawley rats (250-300 g), purchased from Harlan Laboratories (Indianapolis, Ind.). The animals were housed in group cages (2 per cage), allowed free access to food and water, and maintained on a 12/12 hour light/dark cycle.
(§2) Experimental design. Animals were habituated daily to the experimental environment for 1 week before testing. Pain sensitivity to mechanical or thermal stimuli applied to the hindpaws was determined by the thresholds of withdrawal of the hindlimbs from the stimuli. […] The effects of MSC transplantation or PBS injection on morphine-induced tolerance were evaluated every other day. […]
(§3) Stem cell transplantation. […] Immediately before transplantation, the cells were gently dissociated with 0.25% Trypsin, pelleted by centrifugation, counted by trypan blue exclusion, and suspended in 50 μl of PBS. […]
(§4) Behavioral tests. […] Withdrawal thresholds were quantified as the mechanical pressure in grams applied to the hindpaws through calibrated filaments (von Frey filaments) or the time interval in seconds between the activation of an infrared thermal stimulation and the withdrawal of the limb. […]

[2] = tested on: Sprague-Dawley rats; assay: Withdrawal thresholds to mechanical stimulation (von Frey) in rats, MSC transplantation and daily morphine; type: in vivo, rat
Protocol: as §1, §2, §3, §4

[3] = tested on: SH-SY5Y cells; assay: cAMP accumulation assay in morphine-treated SH-SY5Y cells; type: cell-based, human; conditions: for cAMP levels: 24 h, SH-SY5Y cells, control not treated with morphine = 100%
Protocol: Culture of SH-SY5Y Cells. SH-SY5Y cells, a well-established stable human neuroblastoma cell line, were purchased from American Type Culture Collection (ATCC, Manassas, Va.) and grown in Dulbecco's modified Eagle's medium (DMEM) with 10% fetal bovine serum, […] penicillin, and 100 μg/ml streptomycin at 37° C. in a 5% CO2 humidified incubator (Fisher). Before experiments, SH-SY5Y cells were treated with 10 μM retinoic acid (RA) for 6 days to induce neuronal differentiation. These differentiated SH-SY5Y cells were then treated with morphine (10 μM) for 24 h unless otherwise specified.
cAMP Accumulation Assay. Levels of cAMP, which is involved in a cellular mechanism of opioid tolerance development, were determined in morphine-treated SH-SY5Y cells. Thirty-six hours after co-culturing with hMSCs or HDFs, SH-SY5Y cells were harvested with a non-enzymatic cell dissociation solution and washed once with HBSS buffer. cAMP accumulation in SH-SY5Y cells was assayed using a LANCE™ cAMP kit (PerkinElmer, Waltham, Mass.) according to the manufacturer's protocol. SH-SY5Y cells were centrifuged at 1000 g for 2 min, resuspended at a concentration of 2×10^6 cells/ml in stimulation buffer (1×HBSS, 5 mM HEPES, 0.1% BSA, 0.5 mM IBMX, pH 7.4) and mixed with 50 μM forskolin. Alexa pluor® 647 labeled antibody was added to the cell suspension and the cells were incubated at 37° C. for additional 15 min, and detection mix was then added to the final cell suspension. The cell sample was further incubated for 1 h in the dark and read on a TECAN instrument (San Jose, Calif.) to measure the LANCE signal. The LANCE signal obtained at […] was directly used to analyze the cAMP levels. The signal at […] was used to identify dispensing or quenching problems. The cAMP standard curve was assayed according to the manufacturer's instructions. The cAMP formation was calculated as the percentage of forskolin-stimulated cAMP accumulation without morphine, which was defined as 100%. All data were expressed as mean±SD. Statistical comparisons were analyzed using Prism software. […]

## CN1CC[C@]23c4c5ccc(O)c4O[C@H]2[C@@H](O)C=C[C@H]3[C@H]1C5 [morphine]
[1]
  withdrawal thresholds to thermal stimulation vs pre-morphine values at day 11: significantly reduced
[2]; control (PBS) group, daily s.c. morphine 7.5 mg/kg, within five days
  withdrawal thresholds to mechanical stimulation (morphine tolerance): gradually and significantly reduced
[2]; control group, Day 15, 4 days after start of daily morphine injections, t=15.639, p<0.001
  mean mechanical withdrawal thresholds vs pre-morphine value at day 11: dramatically decreased
[3]; 1 μM morphine
  cAMP levels: 150.7±20.6 % of control
[3]; 10 μM morphine
  cAMP levels: 241.6±19.6 % of control
[3]; 10 μM morphine, at 24 and 48 h vs 0 h, p<0.001 (FIG. 2)
  cAMP levels over time: significant increase of cAMP
